Source: article PMC12259508, “Expediting multiple biological properties of main bioactive compounds of Mentha pulegium L” (AMB Express, 2025)
Converted amounts (≈) assume the structure as drawn. Read-outs that look alike come from different tables or passages of the source.

Key:
[1] = system: Escherichia coli ATCC 25922; test: MIC and MBC determination, broth microdilution; assay type: cell-based; settings: for MBC: ATCC25922, 24 h, read-out: MBC Escherichia coli
Experimental: (§1) As mentioned before, the minimum inhibitory concentration (MIC) was established using the broth microdilution method. The minimum sample concentration required to destroy the bacteria is indicated by the minimum bactericidal concentration (MBC). The microdilution method, based on MIC determination, was similarly applied. After 24 h of incubation at 37 °C, […] of sample from each tube showing no apparent growth were inoculated on Tryptone Soja agar (Biokar, Beauvais, France). The MBC was determined as the lowest concentration showing no growth on the culture medium.

[2] = system: Pseudomonas aeruginosa ATCC 27853; test: MIC and MBC determination, broth microdilution; assay type: cell-based; settings: for MBC: ATCC27853, 24 h, read-out: MBC Pseudomonas aeruginosa
Experimental: as §1

[3] = system: Listeria monocytogenes ATCC 13932; test: MIC and MBC determination, broth microdilution; assay type: cell-based; settings: for MBC / MIC: Listeria monocytogenes; for MBC: ATCC13932, 24 h; for MIC Listeria monocytogenes: broth microdilution
Experimental: as §1

[4] = system: Staphylococcus aureus ATCC 29213; test: MIC and MBC determination, broth microdilution; assay type: cell-based; settings: for MBC / MIC: Staphylococcus aureus; for MBC: ATCC29213, 24 h; for MIC Staphylococcus aureus: broth microdilution
Experimental: as §1

elastase [5] = target: T1, elastase (Sus scrofa, UniProt P00772); test: Elastase inhibitory assay; assay type: biochemical
T1 sequence (P00772 27-266): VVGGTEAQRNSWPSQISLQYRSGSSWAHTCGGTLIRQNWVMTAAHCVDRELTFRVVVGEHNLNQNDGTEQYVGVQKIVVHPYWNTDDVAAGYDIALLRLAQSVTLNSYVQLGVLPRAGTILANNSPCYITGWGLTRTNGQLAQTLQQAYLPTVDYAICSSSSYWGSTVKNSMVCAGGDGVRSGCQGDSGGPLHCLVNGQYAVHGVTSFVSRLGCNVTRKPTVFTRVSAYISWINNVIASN
Experimental: By adapting certain aspects, the methodology of this research is based on the protocol reported by Jeddi et al. (Jeddi et al. [2023]).
Then, 200 µL of an elastase solution prepared in Tris–HCl buffer (0.2 M, pH 8.0) was mixed with 50 µL of each sample. Following a 15-min incubation at 25 °C, 200 µL of N-succinyl-Ala-Ala-p-nitroanilide solution was added, and the reaction mixtures were homogenized. Absorbances were recorded at 410 nm after an additional 20-min incubation at 25 °C. […] Furthermore, the methodology described in this study should provide a valuable resource for future research assessing the effect of other natural compounds on elastase activity, thereby expanding our understanding of their beneficial properties.

[6] = system: methicillin resistant Staphylococcus aureus (MRSA); parameters: method as in Zhao et al. [2023b]; settings: ref Zhao et al. [2023b]; cited from earlier work
[7] = target: T2, α-amylase from Bacillus licheniformis (Bacillus licheniformis, UniProt P06278); test: α-Amylase inhibitory assay (starch/DNS); assay type: biochemical; settings: mean ± SD, triplicate
T2 construct: purchased
T2 sequence (P06278 30-512): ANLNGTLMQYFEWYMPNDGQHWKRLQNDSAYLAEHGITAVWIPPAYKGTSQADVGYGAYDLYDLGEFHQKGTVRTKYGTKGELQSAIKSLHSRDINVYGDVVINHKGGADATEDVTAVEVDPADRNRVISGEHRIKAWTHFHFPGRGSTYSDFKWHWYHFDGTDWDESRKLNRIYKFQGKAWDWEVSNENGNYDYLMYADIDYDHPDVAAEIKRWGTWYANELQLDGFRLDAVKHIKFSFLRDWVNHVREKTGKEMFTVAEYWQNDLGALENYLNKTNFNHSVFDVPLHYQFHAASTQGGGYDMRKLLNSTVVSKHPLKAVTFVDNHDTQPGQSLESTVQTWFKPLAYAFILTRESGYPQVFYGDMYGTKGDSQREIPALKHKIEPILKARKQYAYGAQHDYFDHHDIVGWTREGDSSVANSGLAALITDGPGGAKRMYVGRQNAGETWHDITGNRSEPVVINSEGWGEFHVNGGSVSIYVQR
Experimental: (§2) The α-glucosidase from Saccharomyces cerevisiae and the α-amylase from Bacillus licheniformis were also obtained from reliable commercial sources. Additional reagents were carefully selected from reputable suppliers. Mueller–Hinton agar was sourced from Biokar in Beauvais, France. All other chemicals used are of analytical grade.
Specifically, 250μL of the sample was mixed with an equal volume of α-amylase (240 U/mL) in a 0.02 M sodium phosphate buffer (SPB) (pH = 6.9). The mixtures were incubated at 37 °C for twenty minutes. Subsequently, 250 µL of a 1% starch solution in a 0.02 M SPB (pH = 6.9) was added to the reaction mixture, and the combination was allowed to sit at 37 °C for 15 min. One milliliter of dinitrosalicylic acid (DNS) was then introduced, and the blend was brought to a boil in a water bath for ten minutes. The reaction mixture was subsequently diluted with 2 mL of distilled water, and the absorbance was measured at 540 nm using an ultraviolet–visible spectrophotometer.

[8] = target: T3, α-glucosidase from Saccharomyces cerevisiae (Saccharomyces cerevisiae, UniProt P53341); test: α-Glucosidase inhibitory assay (pNPG); assay type: biochemical; settings: mean ± SD, triplicate
T3 construct: purchased
T3 sequence (P53341 whole entry): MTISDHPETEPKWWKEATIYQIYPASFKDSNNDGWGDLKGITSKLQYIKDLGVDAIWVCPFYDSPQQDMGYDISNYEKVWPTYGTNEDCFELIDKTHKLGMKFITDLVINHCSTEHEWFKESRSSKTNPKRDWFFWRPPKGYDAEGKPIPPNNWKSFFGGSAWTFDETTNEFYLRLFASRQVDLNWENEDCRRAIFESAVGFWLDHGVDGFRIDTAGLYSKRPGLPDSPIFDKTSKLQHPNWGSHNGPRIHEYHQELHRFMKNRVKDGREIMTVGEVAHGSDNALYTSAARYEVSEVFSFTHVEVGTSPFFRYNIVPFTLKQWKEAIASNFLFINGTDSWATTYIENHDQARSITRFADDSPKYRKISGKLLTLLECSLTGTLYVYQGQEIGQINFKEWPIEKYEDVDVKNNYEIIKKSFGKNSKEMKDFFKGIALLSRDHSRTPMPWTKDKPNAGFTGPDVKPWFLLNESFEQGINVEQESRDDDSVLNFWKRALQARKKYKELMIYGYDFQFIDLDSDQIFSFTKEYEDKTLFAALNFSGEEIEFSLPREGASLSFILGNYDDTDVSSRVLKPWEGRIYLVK
Experimental: as §2
Initially, 200 µL of the samples were mixed with 100 µL of 0.1 M SPB (pH = 6.7) containing 0.1 U/mL of α-glucosidase enzyme. The mixture was then incubated at 37 °C for ten minutes. One milligram of pNPG was dissolved in 0.1 ml of SPB (pH = 6.7). The activity of α-glucosidase was assessed by measuring the absorbance at 405 nm following the addition of 1 mL of 0.1 M Na2CO3 to the reaction mixture.

S. aureus [9] = system: S. aureus; parameters: method as in Farhanghi et al. [2022]; settings: ref Farhanghi et al. [2022]; cited from earlier work
S. maltophilia = system: S. maltophilia; parameters: method as in Baygar ([2019]); settings: ref Baygar ([2019]); cited from earlier work
S. aureus [10] = system: S. aureus; parameters: method as in Sonboli et al. ([2006]); settings: ref Sonboli et al. ([2006]); cited from earlier work
E. coli K1 = system: E. coli K1; parameters: method as in Gong et al. [2021]; settings: ref Gong et al. [2021], cited from earlier work
[11] = system: Streptococcus equi subsp. equi; parameters: method as in Nozohour and Jalilzadeh-amin [2021]; settings: ref Nozohour and Jalilzadeh-amin [2021]; cited from earlier work
[12] = system: P. aeruginosa, S. aureus, and K. pneumoniae; parameters: method as in Amalich et al. [2016]; settings: ref Amalich et al. [2016]; cited from earlier work
S. epidermidis = system: S. epidermidis; parameters: method as in Sonboli et al. ([2006]); settings: ref Sonboli et al. ([2006]); cited from earlier work
elastase [13] = target: T1, elastase; parameters: method as in our previous study; settings: ref our previous study, cited from earlier work
tyrosinase = tyrosinase (Agaricus bisporus, UniProt C7FF04); parameters: method as in our previous study; settings: ref our previous study; cited from earlier work
Chain of tyrosinase (C7FF04 1-392): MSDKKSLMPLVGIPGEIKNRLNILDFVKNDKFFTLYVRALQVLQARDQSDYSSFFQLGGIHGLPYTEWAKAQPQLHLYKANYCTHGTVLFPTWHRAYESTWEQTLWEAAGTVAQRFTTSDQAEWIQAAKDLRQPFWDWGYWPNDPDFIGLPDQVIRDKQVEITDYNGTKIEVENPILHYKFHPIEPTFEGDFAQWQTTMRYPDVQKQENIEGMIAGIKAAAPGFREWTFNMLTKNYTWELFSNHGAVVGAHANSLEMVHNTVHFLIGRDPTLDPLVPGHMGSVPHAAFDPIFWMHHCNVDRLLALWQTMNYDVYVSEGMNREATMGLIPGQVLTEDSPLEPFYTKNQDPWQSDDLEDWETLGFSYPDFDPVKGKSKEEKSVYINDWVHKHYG

α-amylase = target: α-amylase; parameters: method as in Omari et al. [2023]; settings: ref Omari et al. [2023]; cited from earlier work
α-glucosidase = target: α-glucosidase; parameters: method as in Omari et al. [2023]; settings: ref Omari et al. [2023]; cited from earlier work
[14] = parameters: method as in Luís and Domingues [2021]; settings: ref Luís and Domingues [2021]; cited from earlier work
[15] = ATCC25922, broth microdilution, read-out: MIC Escherichia coli
[16] = ATCC27853, broth microdilution, read-out: MIC Pseudomonas aeruginosa
[17] = 24 h, 37 °C, read-out: MBC Listeria monocytogenes
[18] = ATCC13932, broth microdilution, read-out: MIC Listeria monocytogenes
[19] = 24 h, 37 °C, read-out: MBC Staphylococcus aureus
[20] = ATCC29213, broth microdilution, read-out: MIC Staphylococcus aureus

In the case of `CC(C)[C@@H]1CC[C@@H](C)CC1=O` [Menthone, menthone], the MBC ([1]; 37 °C) is reported as > 2 µg/mL, the MIC [1, 15] is reported as 1 µg/mL (≈ 6.48 µM) and the MBC ([2]; 37 °C) is reported as 1 µg/mL (≈ 6.48 µM). The MIC [2, 16] was 0.5 µg/mL (≈ 3.24 µM), the “MBC Listeria monocytogenes” value ([3]; 24 h, 37 °C) was 0.25 µg/mL (≈ 1.62 µM) and the MBC [3, 17] was 0.125 to 0.25 µg/mL (≈ 0.81 to 1.62 µM). The MIC [3, 18] was 0.125 to 0.25 µg/mL (≈ 0.81 to 1.62 µM), the “MIC Listeria monocytogenes” value [3] was 0.125 µg/mL (≈ 0.81 µM) and the “MBC Staphylococcus aureus” value ([4]; 24 h, 37 °C) was 0.125 µg/mL (≈ 0.81 µM). The MBC [4, 19] was 0.125 to 0.25 µg/mL (≈ 0.81 to 1.62 µM), the MIC [4, 20] was 0.125 to 0.25 µg/mL (≈ 0.81 to 1.62 µM) and the “MIC Staphylococcus aureus” value [4] was 0.125 µg/mL (≈ 0.81 µM). For the same compound, the IC50 (elastase [5]) was 860 µM, the “MBC MRSA” value [6] was 7.1 µg/mL (≈ 46 µM) and the “MIC MRSA” value [6] was 3.5 µg/mL (≈ 22.7 µM). It also gave an IC50 [7] of 968 µM and an IC50 [8] of 703 µM.
In the case of `CC12CCC(CC1)C(C)(C)O2` [eucalyptol, reference compound], the “MIC S. aureus” value (S. aureus [9]) is given as 23.43 μl/mL.
With `O=C(N[C@H](CO)[C@H](O)c1ccc([N+](=O)[O-])cc1)C(Cl)Cl` [Chloramphenicol, reference compound] the MBC ([1]; 37 °C) was 32 µg/mL (≈ 99 µM), the MIC [1, 15] was 8 µg/mL (≈ 24.8 µM) and the MBC ([2]; 37 °C) was 64 µg/mL (≈ 198 µM). For the same compound, the MIC [2, 16] was 64 µg/mL (≈ 198 µM), the MBC [3, 17] was 32 µg/mL (≈ 99 µM) and the MIC [3, 18] was 16 µg/mL (≈ 49.5 µM). The MBC [4, 19] was 32 µg/mL (≈ 99 µM) and the MIC [4, 20] was 8 µg/mL (≈ 24.8 µM).
For `CC(C)=C1CC[C@@H](C)CC1=O` [Pulegone, pulegone], the “MBC S. maltophilia” value (S. maltophilia) is listed as 5000 µg/mL (≈ 32800 µM), the “MIC S. maltophilia” value (S. maltophilia) is listed as 2500 µg/mL (≈ 16400 µM) and the “inhibition zone S. maltophilia” value (S. maltophilia) is listed as 28 mm. For the same compound, the MBC [1] was 0.5 µg/mL (≈ 3.28 µM), the MIC ([1]; ATCC25922, read-out: MIC Escherichia coli) was 0.25 µg/mL (≈ 1.64 µM) and the MBC [2] was 0.5 µg/mL (≈ 3.28 µM). For the same compound, the MIC ([2]; ATCC27853, read-out: MIC Pseudomonas aeruginosa) was 0.5 µg/mL (≈ 3.28 µM), the “MBC Listeria monocytogenes” value ([3]; 24 h, 37 °C) was 0.125 µg/mL (≈ 0.821 µM) and the MBC ([3]; read-out: MBC Listeria monocytogenes, 24 h, 37 °C) was 0.125 to 0.25 µg/mL (≈ 0.821 to 1.64 µM). For the same compound, the MIC ([3]; ATCC13932, read-out: MIC Listeria monocytogenes, broth microdilution) was 0.125 to 0.25 µg/mL (≈ 0.821 to 1.64 µM), the “MIC Listeria monocytogenes” value [3] was 0.125 µg/mL (≈ 0.821 µM) and the “MBC Staphylococcus aureus” value ([4]; 24 h, 37 °C) was 0.25 µg/mL (≈ 1.64 µM). For the same compound, the MBC ([4]; read-out: MBC Staphylococcus aureus, 24 h, 37 °C) was 0.125 to 0.25 µg/mL (≈ 0.821 to 1.64 µM), the MIC ([4]; ATCC29213, read-out: MIC Staphylococcus aureus, broth microdilution) was 0.125 to 0.25 µg/mL (≈ 0.821 to 1.64 µM) and the “MIC Staphylococcus aureus” value [4] was 0.125 µg/mL (≈ 0.821 µM). The “activity against S. aureus” value (S. aureus [10]) was 1.8 ± 0.3 mg/mL, the “MIC S. aureus” value (S. aureus [9]) was 5.85 μl/mL and the IC50 (elastase [5]) was 774 µM. For the same compound, the reduced biofilm formation (E. coli K1; E. coli K1) was 52.36%, the “MBC E. coli K1” value (E. coli K1) was 47350 µg/mL (≈ 311000 µM) and the “MIC E. coli K1” value (E. coli K1) was 23680 µg/mL (≈ 156000 µM). The “inhibition zone Streptococcus equi subsp. equi” value [11] was 20 mm, the IC50 [7] was 1200 µM and the IC50 [8] was 783 µM. The “inhibitory effects on P. aeruginosa, S. aureus, and K. pneumoniae” value [12] was 2.80–11.20 µl/mL and the “activity against S. epidermidis” value (S. epidermidis) was 1.8 ± 0.3 mg/mL.
For `C=C(C)[C@H]1CC=C(C)CC1` [limonene], the IC50 anti-elastase (elastase [13]) is listed as 91.25 ± 3.06 µg/mL (≈ 670 µM) and the IC50 anti-tyrosinase (tyrosinase) is listed as 74.24 ± 2.06 µg/mL (≈ 545 µM).
In the case of `CC1=CCC2CC1C2(C)C` (stereo not drawn) [α-pinene], the “IC50 α-amylase” value (α-amylase) is listed as 82.12 ± 4.52 µg/mL (≈ 603 µM), the “IC50 α-glucosidase” value (α-glucosidase) is listed as 95.62 ± 4.11 µg/mL (≈ 702 µM) and the IC50 (elastase [13]; read-out: IC50 anti-elastase (converted)) is listed as 471 µM.
In the case of `CC(=O)Oc1ccccc1C(=O)O` [acetylsalicylic acid], the “IC50 inhibition of protein denaturation” value [14] is listed as 89.47 ± 2.64 %, v/v.
